Results reported in patent publication US10538555B2, “Macrocyclic inhibitors of the PD-1/PD-L1 and CD80(B7-1)/PD-L1 protein/protein interactions” (BRISTOL-MYERS SQUIBB COMPANY, priority 2014, dated 2020).
pIC50: −log10 of the molar value. *1 amine or outer side, *2 acyl side, *3 side chain or, on linkers, in order; H or OH if unused. Where a SMILES comes first, the peptide text is derived from it. Bridges are numbered along the chain shown (N, C = ends). [ ]: non-standard residue; d: D form. Phe(3,4,5-F3) = N[C@@H](Cc1cc(F)c(F)c(F)c1)C(=O)O; NMePhe(4-F) = CN[C@@H](Cc1ccc(F)cc1)C(=O)O; d(cisHyp) = O=C(O)[C@H]1C[C@@H](O)CN1; NMeY = CN[C@@H](Cc1ccc(O)cc1)C(=O)O; NMeF = CN[C@@H](Cc1ccccc1)C(=O)O; X1 = O=C([C@H]1COCCN1[*:1])[*:2]; NMeNle = CCCC[C@H](NC)C(=O)O; dPip = O=C(O)[C@H]1CCCCN1; Orn = NCCC[C@H](N)C(=O)O; Dab = NCC[C@H](N)C(=O)O; Dap = NC[C@H](N)C(=O)O

target: T1, Human PD-L1/PD-1 (Homo sapiens, UniProt Q9NZQ7); test: HTRF Human PD-L1/PD-1 binding assay (PD-1-Ig/PD-L1-His); conditions: PD-L1-His 10 nM, PD-1-Ig 20 nM; class symbol; read-out: HTRF Human PD-L1/PD-1 Binding Assay IC50 Range
T1 construct: TVMV protease cleavage site (C); made in house; host or cells: HEK293T cells
T1 sequence (Q9NZQ7 with tags, fused parts or gaps): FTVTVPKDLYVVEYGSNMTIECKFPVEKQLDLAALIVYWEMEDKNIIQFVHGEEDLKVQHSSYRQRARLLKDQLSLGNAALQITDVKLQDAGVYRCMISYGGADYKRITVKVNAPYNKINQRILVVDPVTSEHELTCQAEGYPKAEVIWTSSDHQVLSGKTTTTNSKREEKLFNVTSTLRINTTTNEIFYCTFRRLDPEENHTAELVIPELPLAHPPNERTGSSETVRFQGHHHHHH
Method in brief: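 HTRF read-out (665/620 nm ratio) after 30 min equilibration with Eu-cryptate anti-Ig mAb (1 nM) and APC anti-His mAb (20 nM). Peptides preincubated 15 min with PD-L1-His (10 nM), then PD-1-Ig (20 nM) added for 15 min.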

| pIC50 | Structure (SMILES) |
| --- | --- |
| 8.00 to 9.00 | CCCC[C@H]1C(=O)N2CCC[C@@H]2C(=O)N[C@@H](CC(=O)O)C(=O)N[C@@H](C(C)C)C(=O)N(C)[C@@H](Cc2ccccc2)C(=O)N[C@@H](CCC(=O)O)C(=O)N2CCCC[C@@H]2C(=O)N[C@@H](Cc2c[nH]c3ccccc23)C(=O)N[C@@H](Cc2ccc(O)cc2)C(=O)N[C@@H](CC(C)C)C(=O)N[C@H](C(=O)NCC(N)=O)CSCC(=O)N[C@@H](Cc2cc(F)c(F)c(F)c2)C(=O)N(C)[C@@H](Cc2ccc(OC)cc2)C(=O)N1C [Example 10602] ({CH2CO}-[Phe(3,4,5-F3)][NMeY](Me)[NMeNle][dP]DV[NMeF]E[dPip]WYLCG-NH2; thioether N-13) |
| 8.00 to 9.00 | CCCC[C@H]1C(=O)N2CCC[C@@H]2C(=O)N[C@@H](CC(=O)O)C(=O)N[C@@H](C(C)C)C(=O)N(C)[C@@H](Cc2ccccc2)C(=O)N[C@@H](CCC(=O)O)C(=O)N2CCCC[C@@H]2C(=O)N[C@@H](Cc2c[nH]c3ccccc23)C(=O)N[C@@H](Cc2ccc(O)cc2)C(=O)N[C@@H](CCN)C(=O)N[C@H](C(=O)NCC(N)=O)CSCC(=O)N[C@@H](Cc2cc(F)c(F)c(F)c2)C(=O)N(C)[C@@H](Cc2ccc(OC)cc2)C(=O)N1C [Example 10603] ({CH2CO}-[Phe(3,4,5-F3)][NMeY](Me)[NMeNle][dP]DV[NMeF]E[dPip]WY[Dab]CG-NH2; thioether N-13) |
| 8.00 to 9.00 | CCCC[C@H]1C(=O)N2CCC[C@@H]2C(=O)N[C@@H](CC(=O)O)C(=O)N[C@@H](C(C)C)C(=O)N(C)[C@@H](Cc2ccccc2)C(=O)N[C@@H](CCC(=O)O)C(=O)N2CCOC[C@@H]2C(=O)N[C@@H](Cc2c[nH]c3ccccc23)C(=O)N[C@@H](Cc2ccc(O)cc2)C(=O)N[C@@H](CCN)C(=O)N[C@H](C(=O)NCC(N)=O)CSCC(=O)N[C@@H](Cc2cc(F)c(F)c(F)c2)C(=O)N(C)[C@@H](Cc2ccc(F)cc2)C(=O)N1C [Example 10605] ({CH2CO}-[Phe(3,4,5-F3)][NMePhe(4-F)][NMeNle][dP]DV[NMeF]E[X1]WY[Dab]CG-NH2; thioether N-13) |
| 8.00 to 9.00 | CCCC[C@H]1C(=O)N2CCC[C@@H]2C(=O)N[C@@H](CC(=O)O)C(=O)N[C@@H](C(C)C)C(=O)N(C)[C@@H](Cc2ccccc2)C(=O)N[C@@H](CCC(=O)O)C(=O)N2CCOC[C@@H]2C(=O)N[C@@H](Cc2c[nH]c3ccccc23)C(=O)N[C@@H](Cc2ccc(O)cc2)C(=O)N[C@@H](CN)C(=O)N[C@H](C(=O)NCC(N)=O)CSCC(=O)N[C@@H](Cc2cc(F)c(F)c(F)c2)C(=O)N(C)[C@@H](Cc2ccc(F)cc2)C(=O)N1C [Example 10606] ({CH2CO}-[Phe(3,4,5-F3)][NMePhe(4-F)][NMeNle][dP]DV[NMeF]E[X1]WY[Dap]CG-NH2; thioether N-13) |
| 8.00 to 9.00 | CCCC[C@H]1C(=O)N2CCC[C@@H]2C(=O)N[C@@H](CC(=O)O)C(=O)N[C@@H](C(C)C)C(=O)N(C)[C@@H](Cc2ccccc2)C(=O)N[C@@H](CCC(=O)O)C(=O)N2CCOC[C@@H]2C(=O)N[C@@H](Cc2c[nH]c3ccccc23)C(=O)N[C@@H](Cc2ccc(O)cc2)C(=O)N[C@@H](CCC(N)=O)C(=O)N[C@H](C(=O)NCC(N)=O)CSCC(=O)N[C@@H](Cc2cc(F)c(F)c(F)c2)C(=O)N(C)[C@@H](Cc2ccc(F)cc2)C(=O)N1C [Example 10607] ({CH2CO}-[Phe(3,4,5-F3)][NMePhe(4-F)][NMeNle][dP]DV[NMeF]E[X1]WYQCG-NH2; thioether N-13) |
| 5.00 to 6.00 | CCCC[C@H]1C(=O)N2CCC[C@@H]2C(=O)N[C@@H](CC(=O)O)C(=O)N[C@@H](C(C)C)C(=O)N(C)[C@@H](Cc2ccccc2)C(=O)N[C@@H](CCC(=O)O)C(=O)N2CCCC[C@@H]2C(=O)N[C@H](CCC(=O)O)C(=O)N[C@@H](Cc2ccc(O)cc2)C(=O)N[C@@H](CCCN)C(=O)N[C@H](C(=O)NCC(N)=O)CSCC(=O)N[C@@H](Cc2cc(F)c(F)c(F)c2)C(=O)N(C)[C@@H](Cc2ccc(F)cc2)C(=O)N1C [Example 10608] ({CH2CO}-[Phe(3,4,5-F3)][NMePhe(4-F)][NMeNle][dP]DV[NMeF]E[dPip][dE]Y[Orn]CG-NH2; thioether N-13) |
| 6.00 to 7.00 | CCCC[C@H]1C(=O)N2CCC[C@@H]2C(=O)N[C@@H](CC(=O)O)C(=O)N[C@@H](C(C)C)C(=O)N(C)[C@@H](Cc2ccccc2)C(=O)N[C@@H](CCN)C(=O)N2CCCC[C@@H]2C(=O)N[C@H](CCC(=O)O)C(=O)N[C@@H](Cc2ccc(O)cc2)C(=O)N[C@@H](CCCN)C(=O)N[C@H](C(=O)NCC(N)=O)CSCC(=O)N[C@@H](Cc2cc(F)c(F)c(F)c2)C(=O)N(C)[C@@H](Cc2ccc(F)cc2)C(=O)N1C [Example 10609] ({CH2CO}-[Phe(3,4,5-F3)][NMePhe(4-F)][NMeNle][dP]DV[NMeF][Dab][dPip][dE]Y[Orn]CG-NH2; thioether N-13) |
| 6.00 to 7.00 | CCCC[C@H]1C(=O)N2CCC[C@@H]2C(=O)N[C@@H](CC(=O)O)C(=O)N[C@@H](C(C)C)C(=O)N(C)[C@@H](Cc2ccccc2)C(=O)N[C@@H](Cc2ccc(O)cc2)C(=O)N2CCCC[C@@H]2C(=O)N[C@H](CCC(=O)O)C(=O)N[C@@H](Cc2ccc(O)cc2)C(=O)N[C@@H](CCCN)C(=O)N[C@H](C(=O)NCC(N)=O)CSCC(=O)N[C@@H](Cc2cc(F)c(F)c(F)c2)C(=O)N(C)[C@@H](Cc2ccc(F)cc2)C(=O)N1C [Example 10610] ({CH2CO}-[Phe(3,4,5-F3)][NMePhe(4-F)][NMeNle][dP]DV[NMeF]Y[dPip][dE]Y[Orn]CG-NH2; thioether N-13) |
| 8.00 to 9.00 | CC(C)C[C@@H]1NC(=O)[C@H](Cc2ccc(O)cc2)NC(=O)[C@H](Cc2c[nH]c3ccccc23)NC(=O)[C@H]2CCCCN2C(=O)[C@H](CCC(=O)O)NC(=O)[C@H](Cc2ccccc2)N(C)C(=O)[C@H](C(C)C)NC(=O)[C@H](CC(=O)O)NC(=O)[C@H]2CCCN2C(=O)[C@H](Cc2ccc(O)cc2)N(C)C(=O)[C@H](Cc2ccc(F)cc2)N(C)C(=O)[C@H](Cc2cc(F)c(F)c(F)c2)NC(=O)CSC[C@@H](C(=O)NCC(N)=O)NC1=O [Example 10611] ({CH2CO}-[Phe(3,4,5-F3)][NMePhe(4-F)][NMeY][dP]DV[NMeF]E[dPip]WYLCG-NH2; thioether N-13) |
| 8.00 to 9.00 | CCCC[C@H]1C(=O)N2C[C@H](O)C[C@@H]2C(=O)N[C@@H](CC(=O)O)C(=O)N[C@@H](C(C)C)C(=O)N(C)[C@@H](Cc2ccccc2)C(=O)N[C@@H](CCC(=O)O)C(=O)N2C[C@H](O)C[C@@H]2C(=O)N[C@@H](Cc2c[nH]c3ccccc23)C(=O)N[C@@H](Cc2ccc(O)cc2)C(=O)N[C@@H](CCCN)C(=O)N[C@H](C(=O)NCC(N)=O)CSCC(=O)N[C@@H](Cc2cc(F)c(F)c(F)c2)C(=O)N(C)[C@@H](Cc2ccc(F)cc2)C(=O)N1C [Example 10612] ({CH2CO}-[Phe(3,4,5-F3)][NMePhe(4-F)][NMeNle][d(cisHyp)]DV[NMeF]E[d(cisHyp)]WY[Orn]CG-NH2; thioether N-13) |
| 8.00 to 9.00 | CCCC[C@H]1C(=O)N2C[C@H](O)C[C@@H]2C(=O)N[C@@H](CC(=O)O)C(=O)N[C@@H](C(C)C)C(=O)N(C)[C@@H](Cc2ccccc2)C(=O)N[C@@H](CCN)C(=O)N2C[C@H](O)C[C@@H]2C(=O)N[C@@H](Cc2c[nH]c3ccccc23)C(=O)N[C@@H](Cc2ccc(O)cc2)C(=O)N[C@@H](CCCN)C(=O)N[C@H](C(=O)NCC(N)=O)CSCC(=O)N[C@@H](Cc2cc(F)c(F)c(F)c2)C(=O)N(C)[C@@H](Cc2ccc(F)cc2)C(=O)N1C [Example 10613] ({CH2CO}-[Phe(3,4,5-F3)][NMePhe(4-F)][NMeNle][d(cisHyp)]DV[NMeF][Dab][d(cisHyp)]WY[Orn]CG-NH2; thioether N-13) |
| 7.00 to 8.00 | CC(C)C[C@@H]1NC(=O)[C@H](Cc2ccc(O)cc2)NC(=O)[C@H](Cc2c[nH]c3ccccc23)NC(=O)[C@H]2CCCCN2C(=O)[C@H](CCC(=O)O)NC(=O)[C@H](Cc2ccccc2)N(C)C(=O)[C@H](C(C)C)NC(=O)[C@H](CC(=O)O)NC(=O)[C@H]2CCCN2C(=O)[C@H](Cc2ccccc2)N(C)C(=O)[C@H](Cc2ccc(F)cc2)N(C)C(=O)[C@H](Cc2cc(F)c(F)c(F)c2)NC(=O)CSC[C@@H](C(=O)NCC(N)=O)NC1=O [Example 10614] ({CH2CO}-[Phe(3,4,5-F3)][NMePhe(4-F)][NMeF][dP]DV[NMeF]E[dPip]WYLCG-NH2; thioether N-13) |
| 7.00 to 8.00 | CCCC[C@H]1C(=O)N2CCC[C@@H]2C(=O)N[C@@H](CC(=O)O)C(=O)N[C@@H](C(C)C)C(=O)N(C)[C@@H](Cc2ccccc2)C(=O)N[C@@H](CCC(=O)O)C(=O)N2CCOC[C@@H]2C(=O)N[C@@H](Cc2c[nH]c3ccccc23)C(=O)N[C@@H](Cc2ccc(O)cc2)C(=O)N[C@@H](CC(C)C)C(=O)N[C@H](C(=O)NCC(N)=O)CSCC(=O)N[C@@H](Cc2cc(F)c(F)c(F)c2)C(=O)N(C)[C@@H](Cc2ccc(O)cc2)C(=O)N1C [Example 10615] ({CH2CO}-[Phe(3,4,5-F3)][NMeY][NMeNle][dP]DV[NMeF]E[X1]WYLCG-NH2; thioether N-13) |
| 7.00 to 8.00 | CCCC[C@H]1C(=O)N2CCC[C@@H]2C(=O)N[C@@H](CC(=O)O)C(=O)N[C@@H](C(C)C)C(=O)N(C)[C@@H](Cc2ccccc2)C(=O)N[C@@H](CCC(=O)O)C(=O)N2CCOC[C@@H]2C(=O)N[C@@H](Cc2c[nH]c3ccccc23)C(=O)N[C@@H](Cc2ccc(O)cc2)C(=O)N[C@@H](CN)C(=O)N[C@H](C(=O)NCC(N)=O)CSCC(=O)N[C@@H](Cc2cc(F)c(F)c(F)c2)C(=O)N(C)[C@@H](Cc2ccc(O)cc2)C(=O)N1C [Example 10617] ({CH2CO}-[Phe(3,4,5-F3)][NMeY][NMeNle][dP]DV[NMeF]E[X1]WY[Dap]CG-NH2; thioether N-13) |

same assay, conditions: PD-L1-His 10 nM, PD-1-Ig 20 nM; read-out: HTRF Human PD-L1/PD-1 Binding Assay IC50

| pIC50 | Structure (SMILES) |
| --- | --- |
| 7.97 | CCCC[C@H]1C(=O)N2CCC[C@@H]2C(=O)N[C@@H](CC(=O)O)C(=O)N[C@@H](C(C)C)C(=O)N(C)[C@@H](Cc2ccccc2)C(=O)N[C@@H](CCC(=O)O)C(=O)N2CCOC[C@@H]2C(=O)N[C@@H](Cc2c[nH]c3ccccc23)C(=O)N[C@@H](Cc2ccc(O)cc2)C(=O)N[C@@H](CCN)C(=O)N[C@H](C(=O)NCC(N)=O)CSCC(=O)N[C@@H](Cc2cc(F)c(F)c(F)c2)C(=O)N(C)[C@@H](Cc2ccc(O)cc2)C(=O)N1C [Example 10616] ({CH2CO}-[Phe(3,4,5-F3)][NMeY][NMeNle][dP]DV[NMeF]E[X1]WY[Dab]CG-NH2; thioether N-13) |
